Laboratory results from patent publication US12258316B2, “Biphenyl compounds useful as muscarinic receptor antagonists” (THERAVANCE BIOPHARMA R&D IP, LLC, priority 2004, dated 2025).

Experiments:
hM3 receptor = target: T1, hM3 receptor (Homo sapiens, UniProt P20309); experiment: Blockade of agonist-mediated calcium release via FLIPR assay; assay type: cell-based; details: CHO cells stably expressing the hM3 receptor, oxotremorine at EC90
T1 construct: expressed in transfected cells; host or cells: CHO cells
Source text: C. Blockade of Agonist-Mediated Calcium Release via FLIPR Assays
Muscarinic receptor subtypes (M1, M3 and M5 receptors), which couple to Gq proteins, activate the phospholipase C (PLC) pathway upon agonist binding to the receptor. As a result, activated PLC hydrolyzes phosphatyl inositol diphosphate (PIP2) to diacylglycerol (DAG) and phosphatidyl-1,4,5-triphosphate (IP3), which in turn generates calcium release from intracellular stores, i.e., endoplasmic and sarcoplasmic reticulum. […] This fluorescence event is measured in real time by the FLIPR, which detects the change in fluorescence from a monolayer of cells cloned with human M1 and M3, and chimpanzee M5 receptors. Antagonist potency can be determined by the ability of antagonists to inhibit agonist-mediated increases in intracellular calcium. […]
To determine antagonist potency, the dose-dependent stimulation of intracellular Ca^2+ release for oxotremorine is first determined so that antagonist potency can later be measured against oxotremorine stimulation at an EC90 concentration. […]
The parameters used for the FLIPR are: exposure length of 0.4 seconds, laser strength of 0.5 watts, excitation wavelength of 488 nm, and emission wavelength of 550 nm. Baseline is determined by measuring the change in fluorescence for 10 seconds prior to addition of agonist. […]

[1] = system: ACh-induced bronchoconstriction; experiment: Duration of bronchoprotection in guinea pig model of acetylcholine-induced bronchoconstriction; assay type: in vivo; details: inhalation, 1.5 hours post-dose
Experimental: Determination of Duration of Bronchoprotection in Guinea Pig Model of Acetylcholine-Induced Bronchoconstriction
Groups of six male guinea pigs (Duncan-Hartley (HsdPoc:DH) Harlan, Madison, WI) weighing between 250 and 350 g were individually identified by cage cards. Throughout the study animals were allowed access to food and water ad libitum.
Test compounds were administered via inhalation over 10 minutes in a whole-body exposure dosing chamber (R&S Molds, San Carlos, CA). The dosing chambers were arranged so that an aerosol was simultaneously delivered to 6 individual chambers from a central manifold. Guinea pigs were exposed to an aerosol of a test compound or vehicle (WFI). […] This was measured gravimetrically by comparing pre- and post-nebulization weights of the filled nebulizer.
The bronchoprotective effects of test compounds administered via inhalation were evaluated using whole body plethysmography at 1.5, 24, 48 and 72 hours post-dose.
Forty-five minutes prior to the start of the pulmonary evaluation, each guinea pig was anesthetized with an intramuscular injection of ketamine (43.75 mg/kg), xylazine (3.50 mg/kg) and acepromazine (1.05 mg/kg). […] The depth of anesthesia was monitored and adjusted if the animal responded to pinching of its paw or if the respiration rate was greater than 100 breaths/minute. […]

T1 sequence (P20309 whole entry): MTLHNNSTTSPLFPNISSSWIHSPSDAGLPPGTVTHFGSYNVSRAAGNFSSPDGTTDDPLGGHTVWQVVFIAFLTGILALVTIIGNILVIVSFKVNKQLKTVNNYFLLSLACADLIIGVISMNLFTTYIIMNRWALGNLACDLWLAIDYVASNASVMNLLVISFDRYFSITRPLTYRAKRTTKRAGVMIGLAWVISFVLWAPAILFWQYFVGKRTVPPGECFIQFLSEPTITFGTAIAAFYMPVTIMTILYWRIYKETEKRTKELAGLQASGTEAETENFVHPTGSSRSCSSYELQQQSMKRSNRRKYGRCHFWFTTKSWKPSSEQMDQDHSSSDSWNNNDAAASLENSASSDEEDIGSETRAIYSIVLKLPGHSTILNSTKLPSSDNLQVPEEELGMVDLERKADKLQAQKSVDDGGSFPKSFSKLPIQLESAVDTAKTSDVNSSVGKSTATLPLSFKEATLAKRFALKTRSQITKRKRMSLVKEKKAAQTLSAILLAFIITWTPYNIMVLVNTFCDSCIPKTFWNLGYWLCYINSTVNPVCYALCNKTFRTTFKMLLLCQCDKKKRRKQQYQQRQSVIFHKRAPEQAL

Ki (hM3 receptor): < 5 nM
SMILES: CN(CCN1CCC(OC(=O)Nc2ccccc2-c2ccccc2)CC1)C(=O)c1ccc(CN2CCC(C(N)=O)CC2)cc1 [Example 1, Biphenyl-2-ylcarbamic Acid 1-(2-{[4-(4-Carbamoylpiperidin-1-ylmethyl)benzoyl]methylamino}ethyl)piperidin-4-yl Ester]
PD2(50) for ACh-induced bronchoconstriction [1]: less than 200 μg/mL
